Measurements from patent publication US5688807A, “Method for treating 5HT2B receptor related conditions” (Eli Lilly and Company, priority 1995, dated 1997).
Where a name gives a salt, the structure may show the parent alone. Read-outs that look alike come from different tables or passages of the source.

Columns and labels:
Human 5-HT2A = Human 5-HT2A (Homo sapiens, UniProt P28223); test: [125I]DOI radioligand binding, human 5-HT2A
rat 5-HT2B receptor = rat 5-HT2B receptor (Rattus norvegicus, UniProt P30994); test: biochemical; format: binding;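 further: displacement of [3H]5-HT from membranes of suspension cells carrying cloned rat 5-HT2B receptor, incubated 15 min at 37 °C or 2 h at 0 °C, filter-bound radioactivity counted by scintillation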
Chain of rat 5-HT2B receptor (P30994 whole entry): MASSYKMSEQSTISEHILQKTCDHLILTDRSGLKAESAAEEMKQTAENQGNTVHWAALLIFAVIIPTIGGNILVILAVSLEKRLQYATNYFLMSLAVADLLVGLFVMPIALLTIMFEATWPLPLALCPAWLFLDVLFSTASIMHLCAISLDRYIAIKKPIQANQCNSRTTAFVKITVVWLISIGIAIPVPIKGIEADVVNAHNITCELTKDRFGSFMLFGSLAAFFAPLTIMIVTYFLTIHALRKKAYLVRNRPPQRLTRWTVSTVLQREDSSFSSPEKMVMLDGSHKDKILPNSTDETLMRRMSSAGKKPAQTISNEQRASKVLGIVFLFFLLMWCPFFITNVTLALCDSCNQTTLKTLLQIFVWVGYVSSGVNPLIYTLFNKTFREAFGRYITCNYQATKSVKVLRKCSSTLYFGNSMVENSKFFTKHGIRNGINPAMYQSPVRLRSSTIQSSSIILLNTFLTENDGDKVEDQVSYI

Human 5-HT2B = target: T1, Human 5-HT2B (Homo sapiens, UniProt P41595); test: [3H]Serotonin radioligand binding, human 5-HT2B;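 further: competition of tritiated serotonin binding to cell membranes, bound radioactivity on filters counted by liquid scintillation, IC50 from logistic fits converted to Ki with the Cheng-Prusoff equation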
T1 construct: expressed in transfected cells
T1 sequence (P41595 whole entry): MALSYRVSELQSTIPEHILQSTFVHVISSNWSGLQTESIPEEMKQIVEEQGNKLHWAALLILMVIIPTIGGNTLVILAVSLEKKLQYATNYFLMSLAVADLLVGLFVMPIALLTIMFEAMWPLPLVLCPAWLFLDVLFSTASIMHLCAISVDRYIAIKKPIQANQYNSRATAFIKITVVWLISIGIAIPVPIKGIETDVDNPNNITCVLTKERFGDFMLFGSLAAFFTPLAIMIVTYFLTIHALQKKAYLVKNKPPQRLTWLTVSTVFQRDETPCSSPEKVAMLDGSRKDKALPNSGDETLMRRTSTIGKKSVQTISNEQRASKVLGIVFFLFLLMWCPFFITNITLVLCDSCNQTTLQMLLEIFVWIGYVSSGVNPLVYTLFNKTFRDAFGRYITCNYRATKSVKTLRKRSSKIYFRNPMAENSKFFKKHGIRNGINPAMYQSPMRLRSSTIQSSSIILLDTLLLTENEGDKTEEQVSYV

[1] = target: 5-HT2B receptor (rat stomach fundus) (Rattus norvegicus, UniProt P30994);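 further: isometric contraction of isolated male Wistar rat stomach fundus strips, serotonin concentration-response curves after antagonist incubation, KB from dose ratio of agonist potency versus control curve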
Chain of 5-HT2B receptor (rat stomach fundus) (P30994 whole entry): as the sequence (P30994 whole entry) above

[2] = [3H]Serotonin, 5-HT2B cells, AVG, read-out: Ki Human 5-HT2B
[3] = [3H]Serotonin, 5-HT2B cells, AVG, read-out: Ki Rat 5-HT2B
[4] = rat stomach fundus, vs serotonin, ± standard error, read-out: 5-HT2B (Fundus) -log KB (converted)

Chain of Human 5-HT2A (P28223 whole entry): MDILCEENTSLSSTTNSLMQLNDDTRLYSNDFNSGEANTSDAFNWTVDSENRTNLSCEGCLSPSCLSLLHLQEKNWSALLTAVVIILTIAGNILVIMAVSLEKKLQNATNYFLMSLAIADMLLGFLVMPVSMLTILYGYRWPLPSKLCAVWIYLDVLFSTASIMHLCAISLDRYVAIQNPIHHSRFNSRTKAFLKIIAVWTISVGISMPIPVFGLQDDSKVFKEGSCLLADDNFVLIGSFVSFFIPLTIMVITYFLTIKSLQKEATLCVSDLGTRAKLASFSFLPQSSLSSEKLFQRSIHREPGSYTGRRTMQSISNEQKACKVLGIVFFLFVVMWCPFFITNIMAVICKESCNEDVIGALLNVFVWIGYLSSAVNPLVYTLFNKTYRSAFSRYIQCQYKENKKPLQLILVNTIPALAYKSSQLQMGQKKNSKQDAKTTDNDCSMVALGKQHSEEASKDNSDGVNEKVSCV

| Structure (SMILES) | Ki (Human 5-HT2B; [2]) | Ki (Human 5-HT2A) | Kb [1, 4] | other results |
| --- | --- | --- | --- | --- |
| CC(C)n1cc2c3c(cccc31)C1CC(C(=O)NCCN3CCN(c4ccccc4)CC3)CN(C)C1C2 (centres unmarked) |  |  |  | Ki (Human 5-HT2A; Ki Human 5-HT2A, [125I]DOI, AVG): 32.7 nM; Ki (rat 5-HT2B receptor; Ki Rat 5-HT2B, [3H]Serotonin, 5-HT2B cells, AVG): 11.9 nM |
| CCCN(CCC)C1CCc2cccc(-c3ccno3)c2C1 (centres unmarked) | 509 nM |  |  | Ki (Human 5-HT2A; read-out: Ki Human 5-HT2A, [125I]DOI, AVG): 354 nM |
| CCCN(CCC)[C@@H]1CCc2cccc(-c3ccon3)c2C1 | 784 nM | 127 nM |  |  |
| CCCN(CCC)[C@H]1CCc2cccc(-c3ccon3)c2C1 | 257 nM | 5690 nM |  |  |
| CCCNC1CCc2cccc(-c3ccno3)c2C1 (centres unmarked) | 1020 nM | 6030 nM |  |  |
| CCCNC1CCc2cccc(C(C)=O)c2C1 (centres unmarked) | 1790 nM |  |  |  |
| CC(N)Cc1c[nH]c2ccc(O)cc12 (centres unmarked) |  |  |  | Ki (Human 5-HT2B): 11.9 nM |
| NCCc1c[nH]c2ccc(C(N)=O)cc12 | 128 nM | 120 nM |  | Ki (rat 5-HT2B receptor; [3]): 147 nM |
| c1ccc2c(N3CCNCC3)cccc2c1 |  |  |  | Ki (Human 5-HT2B): 3.79 nM; Ki (rat 5-HT2B receptor; [3]): 4.5 nM |
| Cc1ccc2[nH]c3c(c2c1)CCNC3C(C)c1cccc2ccccc12 (centres unmarked) | 1.29 nM | 5.62 nM |  | Ki (rat 5-HT2B receptor; [3]): 3.94 nM |
| Cc1ccc2[nH]c3c(c2c1)CCNC3Cc1ccc(N(C)C)c2ccccc12 (centres unmarked) | 1.64 nM | 0.83 nM |  | Ki (rat 5-HT2B receptor; [3]): 5.02 nM |
| Cc1ccc2[nH]c3c(c2c1)CCNC3Cc1cccc2ccccc12 (centres unmarked) | 0.74 nM | 4.63 nM |  | Ki (rat 5-HT2B receptor; [3]): 3.31 nM |
| COc1ccc(CC2NCCc3c2[nH]c2c(Cl)c(C)ccc32)cc1OC (centres unmarked) | 0.84 nM | 0.93 nM |  | Ki (rat 5-HT2B receptor; [3]): 3.19 nM |
| CCc1ccc2[nH]c3c(c2c1)CCNC3Cc1cccc2ccccc12 (centres unmarked) | 2.08 nM | 6.71 nM |  |  |
| COc1ccc(CC2NCCc3c2[nH]c2ccc(C)cc32)c(Br)c1OC (centres unmarked) |  | 12.2 nM |  | Ki (Human 5-HT2B): 0.37 nM |
| COc1ccc(CC2NCCc3c2[nH]c2ccc(C)cc32)cc1O (centres unmarked) | 1.47 nM | 54.9 nM |  |  |
| COc1ccc(C(C)C2NCCc3c2[nH]c2ccc(C(C)C)cc32)cc1OC (centres unmarked) | 3.46 nM | 201 nM |  |  |
| CN1CC(C(=O)NC2CCCC2O)CC2c3cccc4[nH]cc(c34)CC21 (centres unmarked) |  |  |  | Ki (Human 5-HT2B): 7.87 nM |
| CC(C)n1cc2c3c(cccc31)C1CC(C(=O)NC3CCCC3O)CN(C)C1C2 (centres unmarked) |  |  |  | Ki (Human 5-HT2B; read-out: Ki Human 5-HT2B, [3H]Serotonin, 5-HT2B cells, AVG): 2.24 nM; Ki (Human 5-HT2A; [125I]DOI, AVG, read-out: Ki Human 5-HT2A): 21.9 nM |
| Cc1ccc2[nH]c3c(c2c1)CCNC3C(C)c1cccc2ccccc12 (racemic) [Example 49, (±) 6-methyl-1-(1-naphthalenyl-1-ethyl)-1,2,3,4-tetrahydro-9H-pyrido [3,4-b]indole (Z) 2-butenedioate] |  |  | ~0.0389 nM | Ki (rat 5-HT2B receptor; Radioligand assay, Table III, read-out: pKi (converted)): 3.98 nM |
| CCCN(CCC)C1CCc2cccc(C(=O)C(C)(C)C)c2C1 (single isomer, unassigned) | 4750 nM | 2230 nM |  |  |

| Structure (SMILES) | Ki (Human 5-HT2B; [2]) | Ki (Human 5-HT2A) | Kb [1, 4] | other results |
| --- | --- | --- | --- | --- |
| COc1ccc(CC2NCCc3c2[nH]c2c3ccc3ccccc32)cc1OC (centres unmarked) [Example 10, 7,8,9,10-tetrahydro-10-[(3,4-dimethoxyphenyl)methyl]-11H-benzo[g]pyrido[3,4-b]indole] |  |  | 0.603 nM |  |
| COc1ccc(CC2NCCc3c2[nH]c2ccc(C4CCCCC4)cc32)cc1OC (centres unmarked) [Example 11, 6-cyclohexyl-1-[(3,4-dimethoxyphenyl)-methyl]-1,2,3,4-tetrahydro-9H-pyrido[3,4-b]indole hydrochloride] |  |  | > 30.2 nM |  |
| COc1ccc(CC2NCCc3c2[nH]c2c(C)ccc(C)c32)cc1OC (centres unmarked) [Example 12, 5,8-dimethyl-1,2,3,4-tetrahydro-1-[(3,4-dimethoxyphenyl)methyl]-9H-pyrido[3,4b]indole hydrochloride] |  |  | 0.513 nM |  |
| COc1ccc(CC2NCCc3c2[nH]c2ccc(C(C)C)cc32)cc1OC (centres unmarked) [Example 13, 6-(1-methylethyl)-1,2,3,4-tetrahydro-1-[(3,4-dimethoxyphenyl)methyl]-9H-pyrido[3,4b]indole] |  |  | 3.16 nM |  |
| COc1ccc(CC2NCCc3c2[nH]c2c(C)cc(C)cc32)cc1OC (centres unmarked) [Example 14, 6,8-dimethyl-1,2,3,4-tetrahydro-1-[(3,4-dimethoxyphenyl)methyl]-9H-pyrido[3,4b]indole hydrochloride] |  |  | 0.245 nM |  |
| COc1ccc(CC2NCCc3c2[nH]c2cc(C)cc(C)c32)cc1OC (centres unmarked) [Example 15, 5,7-dimethyl-1,2,3,4-tetrahydro-1-[(3,4-dimethoxyphenyl)methyl]-9H-pyrido[3,4b]indole hydrochloride] |  |  | 0.457 nM |  |
| COc1ccc(CC2NCCc3c2[nH]c2ccc(Br)cc32)cc1OC (centres unmarked) [Example 18, 6-bromo-1,2,3,4-tetrahydro-1-[(3,4-dimethoxyphenyl)methyl]-9H-pyrido[3,4b]indole] |  |  | 1.58 nM |  |
| COc1ccc(CC2NCCc3c2[nH]c2c(C)c(C)ccc32)cc1OC (centres unmarked) [Example 19, 7,8-dimethyl-1,2,3,4-tetrahydro-1-[(3,4-dimethoxyphenyl)methyl]-9H-pyrido[3,4b]indole hydrochloride] |  |  |  | Kb [1]: 0.0759 nM |
| COc1cc(CC2NCCc3c2[nH]c2ccc(C)cc32)cc([N+](=O)[O-])c1OC (centres unmarked) [Example 28, 6-methyl-1-[(3,4-dimethoxy-5-nitrophenyl)-methyl]-1,2,3,4-tetrahydro-9H-pyrido[3,4-b]indole hydrochloride] |  |  | 2.82 nM |  |
| COc1cc(CC2NCCc3c2[nH]c2ccc(C)cc32)cc(I)c1OC (centres unmarked) [Example 29, 6-methyl-1-[(3-iodo-4,5-dimethoxy-phenyl)-methyl]-1,2,3,4-tetrahydro-9H-pyrido[3,4-b]indole] |  |  | 7.59 nM |  |
| COc1cc(CC2NCCc3c2[nH]c2ccc(C)cc32)cc(N)c1OC (centres unmarked) [Example 30, 6-methyl-1-[(3,4-dimethoxy-5-amino-phenyl)-methyl]-1,2,3,4-tetrahydro-9H-pyrido[3,4-b]indole dihydrochloride] |  |  | 1.29 nM |  |
| COc1ccc(CC2NCCc3c2[nH]c2ccc(C)cc32)cc1F (centres unmarked) [Example 34, 6-methyl-1-[(3-fluoro-4-methoxyphenyl)-methyl]-1,2,3,4-tetrahydro-9H-pyrido[3,4-b]indole hydrochloride] |  |  | 0.38 nM |  |
| Cc1ccc2[nH]c3c(c2c1)CCNC3Cc1ccc(C)c(C)c1 (centres unmarked) [Example 35, 6-methyl-1-[(3,4-dimethylphenyl)methyl]-1,2,3,4-tetrahydro-9H-pyrido[3,4-b]indole hydrochloride] |  |  |  | Kb ([1]; read-out: 5-HT2B (Fundus) -log KB (converted)): ~0.871 nM |
| COc1c(O)ccc(CC2NCCc3c2[nH]c2ccc(C)cc32)c1Cl (centres unmarked) [Example 37, 6-methyl-1-[(2-chloro-3-methoxy-4-hydroxyphenyl)methyl]-1,2,3,4-tetrahydro-9H-pyrido[3,4-b]-indole hydrochloride] |  |  | 0.646 nM |  |
| Cc1ccc2[nH]c3c(c2c1)CCNC3CC1CCCCC1 (centres unmarked) [Example 39, 6-methyl-1-(cyclohexylmethyl)-1,2,3,4-tetrahydro-9H-pyrido[3,4-b]indole hydrochloride] |  |  | 4.79 nM |  |
| COc1ccc(CC2c3[nH]c4ccc(C)cc4c3CCN2C)c(Cl)c1OC (centres unmarked) [Example 44, 2,6-dimethyl-1-[(2-chloro-3,4-dimethoxyphenyl)methyl]-1,2,3,4-tetrahydro-9H-pyrido[3,4-b]indole hydrochloride] |  |  | 3.98 nM |  |
| COc1ccc(CC2c3[nH]c4ccc(C(C)C)cc4c3CCN2C)cc1OC (centres unmarked) [Example 45, 2-methyl-6-(1-methylethyl)-1,2,3,4-tetrahydro-1-[(3,4-dimethoxyphenyl)methyl]-9H-pyrido-[3,4b]indole maleate] |  |  |  | 5-HT2B (Fundus) -log KB ([1]; rat stomach fundus, vs serotonin, ± standard error): 8.14 ± 0.32 |
| Cc1ccc2[nH]c3c(c2c1)CCN[C@H]3Cc1cccc2ccccc12 [Example 64, (-)-(S)-6-methyl-1,2,3,4-tetrahydro-1-(1-naphthalenylmethyl)-9H-pyrido [3,4-b] indole hydrochloride] |  |  | 0.186 nM |  |
| COc1ccc(CC2NCCc3c2[nH]c2ccc(C)cc32)cc1OC (centres unmarked) [drawing 144] |  | 28.1 nM |  |  |
| COc1ccc(CC2NCCc3c2[nH]c2c(C)cccc32)cc1OC (centres unmarked) [drawing 182] | 1.69 nM | 49.7 nM |  |  |
